According to US7795457B2, “Carbamate compounds” (Kosan Biosciences Incorporated, priority 2007, dated 2010):
Read-outs that look alike come from different tables or passages of the source.

Key:
HCT-116 = assay: Inhibition of tumor cell proliferation, HCT-116; type: cell-based, human; details: read-out: Cancer Cell Line (IC50, nM) HCT-116
Experimental: (§1) The biological activity of compounds of this invention was evaluated by measuring their inhibitory effect on the proliferation of various tumor cell lines. HCT-116 is a human colon cancer cell line. LNCap is a human prostate cancer cell line. SiHa is an HPV-16 positive human cervical cancer line.

SiHa = assay: Inhibition of tumor cell proliferation, SiHa; type: cell-based, human; details: read-out: Cancer Cell Line (IC50, nM) SiHa
Experimental: as §1

LNCap = assay: Inhibition of tumor cell proliferation, LNCap; type: cell-based, human; details: read-out: Cancer Cell Line (IC50, nM) LNCap
Experimental: as §1

CRM1 substrate RanBP1 = assay: Nuclear export block (RanBP1 localization, recovery after compound removal); type: cell-based; details: recovery of cytoplasmic RanBP1 localization after compound washout (typically 1 h exposure; 8, 24 or 48 h recovery)
Experimental: The nuclear export blocking capability of compounds of this invention was evaluated as follows:
1-5×10^4 cells were seeded onto 12 mm glass coverslips or wells of a chamber slide (for example, Lab-Tek #177445). Cells were grown overnight at 37° C. to allow cells to attach to the surface. Media was removed and replaced with media containing the desired test compound and incubated the required time period (typically 1 h). For recovery experiments, cells were washed with PBS or media and incubated in media without test compound for the desired recovery periods (typically 8, 24, or 48 h). The media was removed and coverslips/wells were washed with PBS pH 7.4 for 1 minute. Coverslips or slides were fixed with 3.7% formaldehyde in PBS for 20 minutes at room temperature, washed three times in PBS, and stained for the CRM1 substrate RanBP1.
Coverslips or chamber slides were permeabilized and blocked in 10% donkey serum, 0.1% Triton X-100 in PBS for 30 minutes at room temperature. Primary antibodies were diluted in PBS and incubated for 1 hour at room temperature: goat-anti-RanBP1 (Santa Cruz Biotechnology, sc-1160; 1:50 dilution) and mouse-anti-tubulin (Sigma, T9026; 1:400). Cells were washed 3×5 minutes in PBS. Secondary antibodies donkey-anti-goat Cy3 (705-165-147, Jackson Immunoresearch) and donkey anti-mouse FITC (715-095-150, Jackson Immunoresearch) were diluted 1:200 in PBS and incubated for 1 hour at room temperature. Secondary antibody was removed and cells were stained with a nuclear dye such as DAPI (Sigma, D8417; 2.5 ug/mL in PBS) or Hoechst 33342 (Molecular Probes, H3570; 100 ng/mL in PBS) for 5 minutes at room temperature. Cells were washed 3×5 minutes in PBS and coverslips were mounted with FluorSave (EMD Biosciences, 80058-108). Nuclear (N) or cytoplasmic (C) localization of RanBP1 was examined using a 40× objective on a Zeiss Axiovert 200 inverted epiflourescence microscope. Nuclear localization (N>C) was confirmed after the initial drugging period.

`CC(C=CC1CC=CC(=O)O1)=CC(C)CC=CC(C)=CC(C)C(=O)C(C)C(OC(N)=O)C(C)CC(C)=CCOC(=O)NCc1nccs1` (stereo not drawn) [Compound A-20] gave an IC50 (HCT-116; exposure time to compound 1 h) of 9.4 nM, an IC50 (HCT-116; exposure time to compound 72 h) of 2.6 nM and an IC50 (SiHa; exposure time to compound 1 h) of 4.6 nM.

With `CC(C=CC1CC=CC(=O)O1)=CC(C)CC=CC(C)=CC(C)C(=O)C(C)C(OC(N)=O)C(C)CC(C)=CCOC(=O)N(Cc1ccccc1)C(N)=O` (stereo not drawn) [Compound A-18] the IC50 (HCT-116; exposure time to compound 1 h) was 20.3 nM and the IC50 (SiHa; exposure time to compound 1 h) was 22.5 nM.

With `CC(=C/[C@H](C)C/C=C/C(C)=C/[C@@H](C)C(=O)[C@@H](C)[C@H](O)[C@@H](C)C/C(C)=C/COC(=O)NCc1ccccn1)/C=C/[C@H]1CC=CC(=O)O1` [Compound A-16] the IC50 (HCT-116; Homo sapiens, HCT-116, 1 h) was 2.9 nM and the IC50 (SiHa; Homo sapiens, SiHa, 1 h) was 3.8 nM.

`CC(C=CC1CC=CC(=O)O1)=CC(C)CC=CC(C)=CC(C)C(=O)C(C)C(O)C(C)CC(C)=CCOC(=O)NCCN1CCOCC1` (stereo not drawn) [Compound A-7] was tested, and the IC50 (HCT-116; exposure time to compound 1 h) was 1.8 nM, the IC50 (HCT-116; exposure time to compound 72 h) was 0.4 nM and the IC50 (LNCap; exposure time to compound 1 h) was 1.7 nM. The IC50 (LNCap; exposure time to compound 72 h) was 0.4 nM and the IC50 (SiHa; exposure time to compound 1 h) was 0.5 nM.

Compound `CC(=C/[C@H](C)C/C=C/C(C)=C/[C@@H](C)C(=O)[C@@H](C)[C@H](O)[C@@H](C)C/C(C)=C/COC(=O)NCc1nccs1)/C=C/[C@H]1CC=CC(=O)O1` [Compound A-19] has an IC50 (HCT-116; Homo sapiens, HCT-116, 1 h) of 4.4 nM and an IC50 (SiHa; Homo sapiens, SiHa, 1 h) of 4.5 nM.

`CC(/C=C/C[C@@H](C)/C=C(C)/C=C/[C@@H]1OC(=O)C=C[C@@H]1C)=C\[C@@H](C)C(=O)[C@@H](C)[C@H](O)[C@@H](C)C/C(C)=C/C(=O)O` [Leptomycin A, leptomycin A, reference compound] was tested, and the IC50 (HCT-116; exposure time to compound 1 h) was 19 nM, the IC50 (HCT-116; exposure time to compound 72 h) was 1.4 nM and the “Nuclear Export Block” value (CRM1 substrate RanBP1) was “Fast recovery”. The IC50 (SiHa; exposure time to compound 72 h) was 0.5 nM.

`CC(C=CC1CC=CC(=O)O1)=CC(C)CC=CC(C)=CC(C)C(=O)C(C)C(O)C(C)CC(C)=CCOC(=O)NCCc1ccc(F)cc1` (stereo not drawn) [Compound A-9] was tested, and the IC50 (HCT-116; exposure time to compound 1 h) was 13.8 nM and the IC50 (SiHa; exposure time to compound 1 h) was 8.2 nM.

For `CCN(CC)CCNC(=O)OCC=C(C)CC(C)C(O)C(C)C(=O)C(C)C=C(C)C=CCC(C)C=C(C)C=CC1CC=CC(=O)O1` (stereo not drawn) [Compound A-8], the IC50 (HCT-116; exposure time to compound 1 h) was 2.6 nM, the IC50 (HCT-116; exposure time to compound 72 h) was 0.8 nM and the IC50 (LNCap; exposure time to compound 1 h) was 1.3 nM. It also gave an IC50 (LNCap; exposure time to compound 72 h) of 0.4 nM and an IC50 (SiHa; exposure time to compound 1 h) of 0.5 nM.

`CC(=C/[C@H](C)C/C=C/C(C)=C/[C@@H](C)C(=O)[C@@H](C)[C@H](O)[C@@H](C)C/C(C)=C/COC(=O)NCc1ccc(C(F)(F)F)nc1)/C=C/[C@H]1CC=CC(=O)O1` [Compound A-22] gave an IC50 (HCT-116; Homo sapiens, HCT-116, 1 h) of 18.1 nM.

In the case of `COCCNC(=O)OCC=C(C)CC(C)C(O)C(C)C(=O)C(C)C=C(C)C=CCC(C)C=C(C)C=CC1CC=CC(=O)O1` (stereo not drawn) [Compound A-10], the IC50 (HCT-116; exposure time to compound 1 h) is reported as 3.2 nM and the IC50 (SiHa; exposure time to compound 1 h) is reported as 2.5 nM.

With `CC(C=CC1CC=CC(=O)O1)=CC(C)CC=CC(C)=CC(C)C(=O)C(C)C(O)C(C)CC(C)=CCOC(=O)NCCc1cccnc1` (stereo not drawn) [Compound A-6] the IC50 (HCT-116; exposure time to compound 1 h) was 2.6 nM, the IC50 (HCT-116; exposure time to compound 72 h) was 0.8 nM and the IC50 (LNCap; exposure time to compound 1 h) was 2.8 nM. The IC50 (LNCap; exposure time to compound 72 h) was 0.4 nM, the “Nuclear Export Block” value (CRM1 substrate RanBP1) was “Slow recovery” and the IC50 (SiHa; exposure time to compound 1 h) was 2.1 nM.

In the case of `CC(C=CC1CC=CC(=O)O1)=CC(C)CC=CC(C)=CC(C)C(=O)C(C)C(O)C(C)CC(C)=CCOC(=O)NCCc1c(C)noc1C` (stereo not drawn) [Compound A-11], the IC50 (HCT-116; exposure time to compound 1 h) is reported as 4.2 nM and the IC50 (SiHa; exposure time to compound 1 h) is reported as 3.1 nM.

`CC(C=CC1CC=CC(=O)O1)=CC(C)CC=CC(C)=CC(C)C(=O)C(C)C(O)C(C)CC(C)=CCOC(=O)NCc1ccc(F)cc1` (stereo not drawn) [Compound A-12] was tested, and the IC50 (HCT-116; exposure time to compound 1 h) was 13.9 nM and the IC50 (SiHa; exposure time to compound 1 h) was 5.8 nM.

Compound `CC(=C/[C@H](C)C/C=C/C(C)=C/[C@@H](C)C(=O)[C@@H](C)[C@H](O)[C@@H](C)C/C(C)=C/COC(=O)NC[C@@H](O)CO)/C=C/[C@H]1CC=CC(=O)O1` [Compound A-17] has an IC50 (HCT-116; Homo sapiens, HCT-116, 1 h) of 3.6 nM and an IC50 (SiHa; Homo sapiens, SiHa, 1 h) of 3.2 nM.

leptolstatin [reference compound] was tested, and the IC50 (HCT-116; exposure time to compound 1 h) was 5.5 nM, the IC50 (HCT-116; exposure time to compound 72 h) was 0.49 nM and the “Nuclear Export Block” value (CRM1 substrate RanBP1) was “Slow recovery”. For the same compound, the IC50 (SiHa; exposure time to compound 1 h) was 1.6 nM and the IC50 (SiHa; exposure time to compound 72 h) was 0.45 nM.

`CC(=C/[C@H](C)C/C=C/C(C)=C/[C@@H](C)C(=O)[C@@H](C)[C@H](O)[C@@H](C)C/C(C)=C/COC(=O)NCc1ccc(C(F)(F)F)cn1)/C=C/[C@H]1CC=CC(=O)O1` [Compound A-21] showed an IC50 (HCT-116; Homo sapiens, HCT-116, 1 h) of 20 nM, an IC50 (HCT-116; Homo sapiens, HCT-116, 72 h) of 3.1 nM and an IC50 (SiHa; Homo sapiens, SiHa, 1 h) of 11.5 nM.

`CNC(=O)OC/C=C(\C)C[C@H](C)[C@@H](O)[C@H](C)C(=O)[C@H](C)/C=C(C)/C=C/C[C@@H](C)/C=C(C)\C=C\[C@H]1CC=CC(=O)O1` [Compound A-2] showed an IC50 (HCT-116; Homo sapiens, HCT-116, 1 h) of 3.7 nM, an IC50 (HCT-116; Homo sapiens, HCT-116, 72 h) of 0.7 nM and an IC50 (LNCap; Homo sapiens, LNCaP, 1 h) of 2.7 nM. The IC50 (LNCap; Homo sapiens, LNCaP, 72 h) was 0.4 nM, the “Nuclear Export Block” value (CRM1 substrate RanBP1) was “Slow recovery” and the IC50 (SiHa; Homo sapiens, SiHa, 1 h) was 1.2 nM. The IC50 (SiHa; Homo sapiens, SiHa, 72 h) was 0.4 nM.

`CC(=C/[C@H](C)C/C=C/C(C)=C/[C@@H](C)C(=O)[C@@H](C)[C@H](O)[C@@H](C)C/C(C)=C/COC(=O)NCc1cc(C)on1)/C=C/[C@H]1CC=CC(=O)O1` [Compound A-15] showed an IC50 (HCT-116; Homo sapiens, HCT-116, 1 h) of 2.8 nM and an IC50 (SiHa; Homo sapiens, SiHa, 1 h) of 3.6 nM.

For `CC(C=CC1CC=CC(=O)O1)=CC(C)CC=CC(C)=CC(C)C(=O)C(C)C(O)C(C)CC(C)=CCOC(=O)NCCN1CCCC1` (stereo not drawn) [Compound A-5], the IC50 (HCT-116; exposure time to compound 1 h) was 2.2 nM, the IC50 (HCT-116; exposure time to compound 72 h) was 1.6 nM and the IC50 (LNCap; exposure time to compound 1 h) was 1.7 nM. The IC50 (LNCap; exposure time to compound 72 h) was 0.5 nM and the IC50 (SiHa; exposure time to compound 1 h) was 2.1 nM.

Compound `CC(C=CC1CC=CC(=O)O1)=CC(C)CC=CC(C)=CC(C)C(=O)C(C)C(O)C(C)CC(C)=CCOC(=O)NCCn1ccnc1` (stereo not drawn) [Compound A-14] has an IC50 (HCT-116; exposure time to compound 1 h) of 2.9 nM and an IC50 (SiHa; exposure time to compound 1 h) of 3.8 nM.

Compound `CC(=C/[C@H](C)C/C=C/C(C)=C/[C@@H](C)C(=O)[C@@H](C)[C@H](O)[C@@H](C)C/C(C)=C/COC(=O)NCc1cccc(C(F)(F)F)n1)/C=C/[C@H]1CC=CC(=O)O1` [Compound A-23] has an IC50 (HCT-116; Homo sapiens, HCT-116, 1 h) of 21.5 nM.

Work on `CC(C=CC1CC=CC(=O)O1)=CC(C)CC=CC(C)=CC(C)C(=O)C(C)C(O)C(C)CC(C)=CCOC(=O)NCCN1CCCC1=O` (stereo not drawn) [Compound A-13] yielded an IC50 (HCT-116; exposure time to compound 1 h) of 2.9 nM and an IC50 (SiHa; exposure time to compound 1 h) of 3.4 nM.

`CC(=C/[C@H](C)C/C=C/C(C)=C/[C@@H](C)C(=O)[C@@H](C)[C@H](OC(N)=O)[C@@H](C)C/C(C)=C/CO)/C=C/[C@H]1CC=CC(=O)O1` [IV] was tested, and the IC50 (HCT-116; Homo sapiens, HCT-116, 1 h) was 8.1 nM and the IC50 (SiHa; Homo sapiens, SiHa, 1 h) was 3.3 nM.
